Target: T1, hCRTH2 (Homo sapiens, UniProt Q9Y5Y4)
T1 construct: expressed in transfected cells; host or cells: HEK (human embryonic kidney) cells expressing hCRTH2
T1 sequence (Q9Y5Y4 1-395): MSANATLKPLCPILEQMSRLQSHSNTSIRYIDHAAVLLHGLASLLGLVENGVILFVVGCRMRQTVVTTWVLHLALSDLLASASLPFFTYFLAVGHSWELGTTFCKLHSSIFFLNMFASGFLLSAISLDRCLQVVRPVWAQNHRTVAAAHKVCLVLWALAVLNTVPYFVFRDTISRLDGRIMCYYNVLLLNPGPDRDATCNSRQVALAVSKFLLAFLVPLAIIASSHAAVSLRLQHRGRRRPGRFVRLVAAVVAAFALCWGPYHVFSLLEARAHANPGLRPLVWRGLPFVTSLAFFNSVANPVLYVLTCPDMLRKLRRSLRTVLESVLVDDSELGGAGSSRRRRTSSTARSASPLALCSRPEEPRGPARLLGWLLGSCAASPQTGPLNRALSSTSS
Test: Radioligand Binding Assay A ([3H]PGD2 filtration binding, HEK-hCRTH2 membranes)
Procedure: Radioligand binding assays were performed at room temperature in 50 mM Tris-HCl pH 7.4, 1 mM EDTA containing 2 mM MnCl2 and 3.0 nM [^3H]PGD2 (New England Nuclear, Boston, Mass.) (171 Ci mmol^−1), in a final volume of 0.2 ml. Competing ligands were diluted in dimethylsulfoxide (Me2SO) that was kept constant at 1% (v/v) of the final incubation volume. The reaction was initiated by the addition of 8-20 μg of membrane protein prepared from a human embryonic kidney (HEK)-hCRTH2 cell line. Total and non-specific binding were determined in the absence and the presence of 10 μM PGD2, respectively. Under these conditions, specific binding (total minus non-specific) of the radioligand to the receptor reached equilibrium within 50 min and was stable up to 180 min. The reaction was routinely conducted for 60 min at room temperature and terminated by rapid filtration through prewetted (0.3% polyethyleneimine) 96-well printed Filtermate™ (Wallac) using a Tomtec® harvester (Hamden, Conn.). After washing with cold buffer, the filter was dried for 2 minutes in microwave, and Meltilex Scintillator sheet (Wallac) was melted on for 2 min. The radioactivity was measured with Betaplate model 1205 (Wallac).

Compound | Ki (Table A, rated A-D) | Ki (values in text)
C[C@@H](NC(=O)c1ccc2nc(-c3ccc(F)cc3)c(CCCCC(=O)O)cc2c1)c1ccc(F)cc1 [Compound 5D, 2-(4-fluorophenyl)-6-[[[1(R)-(4-fluorophenyl)ethyl]amino]carbonyl]-3-quinolinepentanoic acid] | 2.1 to 20 nM | 
O=C(O)CCCCc1cc2cc(C(=O)N[C@@H]3CCc4ccccc43)ccc2nc1-c1ccc(F)cc1 [Compound 5E, 6-[[(2,3-dihydro-1H-inden-1(R)-yl)amino]carbonyl]-2-(4-fluorophenyl)-3-quinolinepentanoic acid] | 2.1 to 20 nM | 
O=C(O)CCCCc1cc2cc(C(=O)N[C@@H]3CCc4ccc(F)cc43)ccc2nc1-c1ccc(F)cc1 [Compound 5F, 6-[[(6-fluoro-2,3-dihydro-1H-inden-1(R)-yl)amino]carbonyl]-2-(4-fluorophenyl)-3-quinolinepentanoic acid] | 2.1 to 20 nM | 13.6 nM
O=C(O)CCCCc1cc2cc(C(=O)N[C@@H]3CCCc4ccccc43)ccc2nc1-c1ccc(F)cc1 [Compound 5G, 2-(4-fluorophenyl)-6-[[(1,2,3,4-tetrahydro-1(R)-naphthalenyl)amino]carbonyl]-3-quinolinepentanoic acid] | 2.1 to 20 nM | 2.6 nM
O=C(O)CCCCc1cc2cc(C(=O)N[C@@H]3CCCc4ccc(F)cc43)ccc2nc1-c1ccc(F)cc1 [Compound 5H, 2-(4-fluorophenyl)-6-[[(7-fluoro-1,2,3,4-tetrahydro-1(R)-naphthalenyl)amino]carbonyl]-3-quinolinepentanoic acid] | 2.1 to 20 nM | 
C[C@H](NC(=O)c1ccc2nc(-c3ccc(F)cc3)c(CCCCC(=O)O)cc2c1)c1ccc(F)cc1 [Compound 5J, 2-(4-fluorophenyl)-6-[[[1(S)-(4-fluorophenyl)ethyl]amino]carbonyl]-3-quinolinepentanoic acid] | 2.1 to 20 nM | 
O=C(O)CCCCc1cc2cc(C(=O)N[C@H]3CCc4ccccc43)ccc2nc1-c1ccc(F)cc1 [Compound 5K, 6-[[(2,3-dihydro-1H-inden-1(S)-yl)amino]carbonyl]-2-(4-fluorophenyl)-3-quinolinepentanoic acid] | 2.1 to 20 nM | 
O=C(O)CCCCc1cc2cc(C(=O)N[C@H]3CCc4ccc(F)cc43)ccc2nc1-c1ccc(F)cc1 [Compound 5L, 6-[[(6-fluoro-2,3-dihydro-1H-inden-1(S)-yl)amino]carbonyl]-2-(4-fluorophenyl)-3-quinolinepentanoic acid] | 2.1 to 20 nM | 
O=C(O)CCCCc1cc2cc(C(=O)N[C@H]3CCCc4ccccc43)ccc2nc1-c1ccc(F)cc1 [Compound 5M, 2-(4-fluorophenyl)-6-[[(1,2,3,4-tetrahydro-1(S)-naphthalenyl)amino]carbonyl]-3-quinolinepentanoic acid] | 2.1 to 20 nM | 
O=C(O)CCCCc1cc2cc(C(=O)N[C@H]3CCCc4ccc(F)cc43)ccc2nc1-c1ccc(F)cc1 [Compound 5N, 2-(4-fluorophenyl)-6-[[(7-fluoro-1,2,3,4-tetrahydro-1(S)-naphthalenyl)amino]carbonyl]-3-quinolinepentanoic acid] | 20.1 to 200 nM | 25.5 nM
O=C(O)CCCCc1cc2cc(C(=O)N[C@@H]3CCCc4cc(Cl)ccc43)ccc2nc1-c1ccc(F)cc1 [Compound 5P, 6-[[(6-chloro-1,2,3,4-tetrahydro-1(R)-naphthalenyl)amino]carbonyl]-2-(4-fluorophenyl)-3-quinolinepentanoic acid] | 2.1 to 20 nM | 
N#Cc1ccc([C@@H](NC(=O)c2ccc3nc(-c4ccc(F)cc4)c(CCCCC(=O)O)cc3c2)C(F)(F)F)cc1 [Compound 5Q, 6-[[[1(R)-(4-cyanophenyl)-2,2,2-trifluoroethyl]amino]carbonyl]-2-(4-fluorophenyl)-3-quinolinepentanoic acid] | 2.1 to 20 nM | 
O=C(O)CCCCc1cc2cc(C(=O)N[C@H]3CCc4cc(Cl)ccc43)ccc2nc1-c1ccc(F)cc1 [Compound 5R, 6-[[(5-chloro-2,3-dihydro-1H-inden-1(S)-yl)amino]carbonyl]-2-(4-fluorophenyl)-3-quinolinepentanoic acid] | 2.1 to 20 nM | 
